# Data: patent US20010018051A1, “Inhibition of allograft and concordant xenograft rejection” (priority 1990, published 2001)
# What was measured:
# rabbit kidney xenografts = settings: rabbit kidney into cats; cited from earlier work
# complement activity = test: onset and duration of cobra venom factor activity after intramuscular administration; format: in vivo
# Experimental: (§1) The minimum dosage of cobra venom factor is species dependent and can readily be determined by the CH50 assay. […] Effective and non-toxic dosages of other complement inhibitors can also readily be determined by those skilled in the art, for example, using the CH50 assay.
# Cobra venom factor takes about 6 hours for its initial activity to take effect after intramuscular administration. Once the initial activity is observed, it can last for more than 1 day, for example 2 days, and so daily administration of cobra venom factor may not be necessary. In fact, it is preferred to administer cobra venom factor on alternate days, in which case the preferred daily dosages given above will be doubled on the day of administration.
# hamster heart xenograft = hamster heart xenograft survival in rats; format: in vivo, rat; settings: hamster heart in DA rats; i.m. on alternate days from time of transplantation (cyclosporin A 20 mg/kg, cobra venom factor 0.4 mg/kg)
# Text: All other cardiac vessels were ligated.
# Injections were given on alternate days thereafter.
# [1] = format: in vivo; settings: doses of 2 mg/kg
# Text: as §1
compound,measurement,setting,value
C[C@H](CS)C(=O)N1CCC[C@H]1C(=O)O [captopril],prevention of hyperacute rejection,rabbit kidney xenografts,not prevented
CCOC(=O)[C@H](CCc1ccccc1)N[C@@H](C)C(=O)N1CCC[C@H]1C(=O)O [enalapril],prevention of hyperacute rejection,rabbit kidney xenografts,not prevented
CCCCC[C@H](O)/C=C/[C@@H]1[C@H]2C/C(=C/CCCC(=O)O)O[C@H]2C[C@H]1O [prostacyclin],prevention of hyperacute rejection,rabbit kidney xenografts,not prevented
O=C(O)c1cc(=O)c2c(OCC(O)COc3cccc4oc(C(=O)O)cc(=O)c34)cccc2o1 [sodium chromoglycate],prevention of hyperacute rejection,rabbit kidney xenografts,not prevented
cobra venom factor,prolongation in graft survival,rabbit kidney xenografts,up to seven days
same,duration of activity once observed,complement activity,more than 1 day
same,time for initial activity to take effect,complement activity,about 6 hours
same,median graft survival rate,hamster heart xenograft,6 days
same,toxicity,[1],do not appear to be toxic
